Assay results from the supplement of paper PMC10307832.

Tests used:
Assay in all cases: relative viability (nuclei count vs DMSO), 5 days (fraction); higher = more cells survive
[1] = test system: 201T
Outline: (§1)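 Cells from lung cancer lines were seeded into 1536-well plates and, one day later, dosed by pin tool. Treatments were either a single drug or a fixed dose of an anchor drug with five library-drug doses (not always all listed) in √10 steps. After 5 days, nuclei were stained in a one-step fixation (final 0.05% Triton X-100, 1% formaldehyde, 1 ug/ml Hoechst) and counted on 4× images, and relative viability is the treated-to-vehicle nuclei ratio, as the median of duplicate plates.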

[2] = test system: EKVX
Outline: as §1

[3] = test system: HCC-44
Outline: as §1

[4] = test system: BEN
Outline: as §1

[5] = test system: LK-2
Outline: as §1

[6] = test system: NCI-H2023
Outline: as §1

[7] = test system: NCI-H358
Outline: as §1

[8] = test system: COR-L 105
Outline: as §1

[9] = test system: NCI-H1563
Outline: as §1

[10] = test system: SW 900
Outline: as §1

[11] = test system: HCC-15
Outline: as §1

[12] = test system: NCI-H520
Outline: as §1

[13] = test system: NCI-H838
Outline: as §1

[14] = test system: PC-3 [JPC-3]
Outline: as §1

[15] = test system: NCI-H322M
Outline: as §1

[16] = test system: NCI-H1651
Outline: as §1

[17] = test system: CAL-12T
Outline: as §1

[18] = test system: LU99A
Outline: as §1

[19] = test system: NCI-H522
Outline: as §1

[20] = test system: NCI-H460
Outline: as §1

[21] = test system: EMC-BAC-2
Outline: as §1

CN1CCN(CCOc2cc(OC3CCOCC3)c3c(Nc4c(Cl)ccc5c4OCO5)ncnc3c2)CC1 [Saracatinib] + Nc1nc2[nH]cc(CCc3ccc(C(=O)N[C@@H](CCC(=O)O)C(=O)O)cc3)c2c(=O)[nH]1 [Pemetrexed] (partner 0.2 µM)
relative viability ([1]; first compound 0.02 µM): 0.312 | relative viability ([1]; first compound 0.2 µM): 0.337 | relative viability ([1]; first compound 0.6325 µM): 0.341 | relative viability ([1]; first compound 2 µM): 0.336 | relative viability ([2]; first compound 0.02 µM): 0.429 | relative viability ([2]; first compound 0.6325 µM): 0.498 | relative viability ([2]; first compound 2 µM): 0.369 | relative viability ([3]; first compound 0.02 µM): 0.645 | relative viability ([3]; first compound 0.2 µM): 0.607 | relative viability ([3]; first compound 0.6325 µM): 0.618 | relative viability ([3]; first compound 2 µM): 0.667 | relative viability ([4]; first compound 0.02 µM): 0.916 | relative viability ([4]; first compound 0.2 µM): 0.824 | relative viability ([4]; first compound 0.6325 µM): 0.727 | relative viability ([4]; first compound 2 µM): 0.667 | relative viability ([5]; first compound 0.02 µM): 0.32 | relative viability ([5]; first compound 0.2 µM): 0.199 | relative viability ([5]; first compound 0.6325 µM): 0.205 | relative viability ([5]; first compound 2 µM): 0.161 | relative viability ([6]; first compound 0.02 µM): 0.229 | relative viability ([6]; first compound 0.2 µM): 0.189 | relative viability ([6]; first compound 0.6325 µM): 0.202 | relative viability ([6]; first compound 2 µM): 0.191 | relative viability ([7]; first compound 0.02 µM): 0.193 | relative viability ([7]; first compound 0.2 µM): 0.166 | relative viability ([7]; first compound 0.6325 µM): 0.156 | relative viability ([7]; first compound 2 µM): 0.151 | relative viability ([8]; first compound 0.02 µM): 1.2 | relative viability ([8]; first compound 0.2 µM): 1.21 | relative viability ([8]; first compound 0.6325 µM): 1.26 | relative viability ([8]; first compound 2 µM): 0.717 | relative viability ([9]; first compound 0.02 µM): 0.946 | relative viability ([9]; first compound 0.2 µM): 0.576 | relative viability ([9]; first compound 0.6325 µM): 0.742 | relative viability ([9]; first compound 2 µM): 0.592 | relative viability ([10]; first compound 0.02 µM): 0.559 | relative viability ([10]; first compound 0.2 µM): 0.361 | relative viability ([10]; first compound 0.6325 µM): 0.506 | relative viability ([10]; first compound 2 µM): 0.408 | relative viability ([11]; first compound 0.02 µM): 0.213 | relative viability ([11]; first compound 0.2 µM): 0.225 | relative viability ([11]; first compound 0.6325 µM): 0.219 | relative viability ([11]; first compound 2 µM): 0.222 | relative viability ([12]; first compound 0.02 µM): 0.625 | relative viability ([12]; first compound 0.2 µM): 0.508 | relative viability ([12]; first compound 0.6325 µM): 0.474 | relative viability ([12]; first compound 2 µM): 0.337 | relative viability ([13]; first compound 0.02 µM): 0.254 | relative viability ([13]; first compound 0.2 µM): 0.204 | relative viability ([13]; first compound 0.6325 µM): 0.248 | relative viability ([13]; first compound 2 µM): 0.227 | relative viability ([14]; first compound 0.02 µM): 1.04 | relative viability ([14]; first compound 0.2 µM): 0.709 | relative viability ([14]; first compound 0.6325 µM): 0.656 | relative viability ([14]; first compound 2 µM): 0.469 | relative viability ([15]; first compound 0.02 µM): 0.574 | relative viability ([15]; first compound 0.2 µM): 0.55 | relative viability ([15]; first compound 0.6325 µM): 0.505 | relative viability ([15]; first compound 2 µM): 0.32 | relative viability ([16]; first compound 0.02 µM): 0.633 | relative viability ([16]; first compound 0.2 µM): 0.566 | relative viability ([16]; first compound 0.6325 µM): 0.621 | relative viability ([16]; first compound 2 µM): 0.581 | relative viability ([17]; first compound 0.02 µM): 1.27 | relative viability ([17]; first compound 0.2 µM): 1.15 | relative viability ([17]; first compound 0.6325 µM): 1.33 | relative viability ([17]; first compound 2 µM): 1.18 | relative viability ([18]; first compound 0.02 µM): 0.205 | relative viability ([18]; first compound 0.2 µM): 0.214 | relative viability ([18]; first compound 0.6325 µM): 0.173 | relative viability ([18]; first compound 2 µM): 0.165 | relative viability ([19]; first compound 0.02 µM): 1.15 | relative viability ([19]; first compound 0.2 µM): 0.918 | relative viability ([19]; first compound 0.6325 µM): 0.735 | relative viability ([19]; first compound 2 µM): 0.747 | relative viability ([20]; first compound 0.02 µM): 0.0672 | relative viability ([20]; first compound 0.2 µM): 0.0368 | relative viability ([20]; first compound 0.6325 µM): 0.0538 | relative viability ([20]; first compound 2 µM): 0.0548 | relative viability ([21]; first compound 0.02 µM): 0.456 | relative viability ([21]; first compound 0.2 µM): 0.373 | relative viability ([21]; first compound 0.6325 µM): 0.44 | relative viability ([21]; first compound 2 µM): 0.442
